Data from patent publication US20250312468A1, “ANTI-PROTAC ANTIBODIES AND COMPLEXES” (Merck Patent GmbH, priority 2021, published 2025).

Tests used:
[1] = mouse, in vivo
Protocol: After shaking/vortexing for 1 min, samples were filtered, (Captiva filtration on polypropylene filter, 0.45 μm pore size) and 120 μL of methanol:water (1:1, v/v) was added to the filtrate and stored at 4° C. until analysis and put in the autosampler before injection. The analysis was carried out on a LC-MS/MS system consisting of an UPLC coupled to a QTRAP 6500+ (Sciex) mass spectrometer. Mobile phase A was water with 0.1% formic acid and mobile phase B was methanol with 0.1% formic acid. […] The chromatography was performed on a Poroshell 120 EC-C18 column, 2.7 μm particles, 3×50 mm, from Agilent Technologies. […] The calibration curve for quantitation was based on standards ranging from 0.5 (Lower Limit of Quantitation) to 10000 (Upper Limit of Quantitation) ng/ml, with 5 calibration points minimum and minimum 75% of calibration standards to be within […] of their nominal values. The total antibody concentration was determined by ligand binding assay (LBA) based on the Meso Scale Diagnostics technology (MSD, LLC., Rockville, MD). […] After a final washing step, 150 μL of 2×MSD Read Buffer T with surfactant (MSD, #R92TC) was added to each well and plates were read on a MESO Quickplex SQ120 plate reader (MSD). […] The lower limit of quantification (LLOQ) was 50 ng/ml.

[2] = system: MDAMB468 cells; test: CellTiter-Glo cell viability assay (MIC2-based PAX); conditions: MDAMB468, complexes at 50% (1:1) loading, three independent experiments
Protocol: 2000 cells per well were seeded into white-opaque 384-well plates followed by overnight incubation in a humid chamber at 37° C. and 5% CO2. […] The assay was developed after 3 days if not otherwise stated using CellTiter-Glo Luminescent Cell Viability Assay as described in the manufacturer's protocol. In brief, the plates were equilibrated to room temperature for 30 minutes. 100 mL CellTiter-Glo Buffer were added to the CellTiter-Glo Substrate Flask and mixed well. 30 μL of the reagent was transferred to each well. After incubation for 3 minutes at room temperature while shaking at 550 rpm, the plate was incubated for another 10 minutes at room temperature. The luminescence was read on an Envision reader. The evaluation was performed using GraphPad Prism 8 by normalization of cells treated with sample to untreated cells. The data were fitted with 4 point logistic curve to determine the IC50 value.

[3] = Mouse serum stability; format: in vitro ADME; conditions: 5 μM, 37° C.
Protocol: The mixture was incubated 2 hours at room temperature while shaking at 650 rpm. 15% (vol/vol) 2 M HEPES buffer pH 7.55 were added to mouse serum from Biowest (Lot.no. S18169S2160) followed by sterile filtration.
The incubation was stopped by freezing at −20° C.
The concentration of PROTAC GNE987 was quantified using LC-MS.
Quantification was performed using a total antibody ELISA (FIG. 24).

[4] = Storage stability of antibody-PROTAC complexes (DLS, SE-HPLC, visible changes); format: physicochemical; conditions: no storage time/temperature printed
Protocol: Storage stability of antibody-PROTAC complexes was assessed after complexation (6 mg/ml, 650 rpm, 3 h, rt) by incubation in the fridge at 4° C. over 96 h as well as snap-freezing the complexes and storage at −80° C. for 24 h or at −20° C. at 96 h. Subsequently the samples were checked for visible changes, the polydispersity was assessed using DLS measurements and the loading was measured via SE-HPLC (Table 6). Samples with polydispersity up to 15% are considered monodisperse.

[5] = system: MV411 cells; test: CellTiter-Glo cell viability assay (VHH-based PAX); design: species or system human; conditions: MV411, PROTAC alone
Protocol: Several cell viability experiments were performed following the procedure described below: Cells were seeded in different media into white cell culture-treated flat and clear bottom multiwell plates followed by overnight incubation in a humid chamber at 37° C. and 5% CO2. Complexation was performed as described in chapter 7.4.
The solutions were added to the cells based on the antibody concentration using nanodrop dispension using a Tecan D300e Digital Dispenser and all wells were normalized to the same volume using 0.3% TW20 in PBS pH 7.4 and DMSO to a final solvent concentration of 0.05% DMSO and 0.003% TW20. Incubation was performed at 37° C. at 5% or 10% CO2 dependent on the medium. The assay was developed after 3 days if not otherwise stated using CellTiter-Glo Luminescent Cell Viability Assay as described in the manufacturer's protocol. In brief, the plates were equilibrated to room temperature for 30 minutes. 100 mL CellTiter-Glo Buffer were added to the CellTiter-Glo Substrate Flask and mixed well. 30 μL of the reagent was transferred to each well. After incubation for 3 minutes at room temperature while shaking at 550 rpm, the plate was incubated for another 10 minutes at room temperature. The luminescence was read on an Envision reader from Perkin Elmer. […]

[6] = system: HEPG2 cells; test: CellTiter-Glo cell viability assay (MIC2-based PAX); conditions: EGFR-negative HEPG2, complexes at 50% loading
Protocol: 2000 cells per well were seeded into white-opaque 384-well plates followed by overnight incubation in a humid chamber at 37° C. and 5% CO2. Complexation was performed as described in chapter 7.4.
The solutions were added to the cells based on the antibody concentration using Tecan D300e dispenser and all wells were normalized to the same volume using 0.3% TW20 in PBS pH 7.4 and DMSO. The assay was developed after 3 days if not otherwise stated using CellTiter-Glo Luminescent Cell Viability Assay as described in the manufacturer's protocol. In brief, the plates were equilibrated to room temperature for 30 minutes. 100 mL CellTiter-Glo Buffer were added to the CellTiter-Glo Substrate Flask and mixed well. 30 μL of the reagent was transferred to each well. After incubation for 3 minutes at room temperature while shaking at 550 rpm, the plate was incubated for another 10 minutes at room temperature. The luminescence was read on an Envision reader. The evaluation was performed using GraphPad Prism 8 by normalization of cells treated with sample to untreated cells. The data were fitted with 4 point logistic curve to determine the IC50 value.

## Cc1ncsc1-c1ccc(CNC(=O)[C@@H]2C[C@@H](O)CN2C(=O)[C@@H](NC(=O)CCCCCCCCCCNC(=O)c2cc3c(cc2CS(C)(=O)=O)-c2cn(C)c(=O)c4[nH]cc(c24)CN3c2ncc(F)cc2F)C(C)(C)C)cc1 [GNE987]
[1]
  time after which PROTAC GNE987 concentration fell below LLOQ: 25 h
[1]; iv, 0.4 mg/kg
  half-life of the PROTAC GNE987: 5.8 h
[2]
  IC50: 0.79 nM
[3]
  stability of GNE987 in mouse serum (LC-MS): stable over 72 hours
[4]
  Visible evaluation: precipitation
[5]
  IC50: < 0.045 nM
[6]
  IC50: 3.1 nM
